{"source": "patent US20100278853A1", "about": "“C[…] V3 LOOP PEPTIDES AS NOVEL IMMUNOGENS AND RECEPTOR ANTAGONISTS” (YEDA RESEARCH AND DEVELOPMENT CO., LTD., priority 2003, published 2010)", "key": {"[1]": {"target": "447Fv", "test": "Fluorescence quenching of 447Fv upon titration with the peptide", "design": "species or system human", "settings": "read-out: dissociation constant / binding affinity for 447Fv", "protocol": "The R5A-M1 peptide binds 447Fv with a dissociation constant of 10 nM as determined by fluorescence quenching of 447F upon titration with the peptide, so is within one order of magnitude of the binding affinity of the V3 peptide (˜1 nM)."}, "[2]": {"test_system": "447", "test": "Binding affinity of V3 peptides to mAb 447 (method not described)", "design": "species or system human", "settings": "relative to affinity of 447 for V3MN peptide"}, "[3]": {"test_system": "R5 and X4 tropic virus strains", "settings": "against both R5 and X4 tropic virus strains; cited from earlier work"}}, "data": [{"substance": "CRKSIHC—GPGRCFYTTGC [R5A-M1]", "values": [{"measurement": "Kd", "setting": "[1]", "result": 10, "unit": "nM"}]}, {"substance": "TRKSIRIQRGPGRAFVTIGK [V3IIIB, 310-329 gp120IIIB V3 loop peptide expressed in E. coli]", "values": [{"measurement": "association constant with 447 compared with the corresponding V3MN peptide", "setting": "[2]", "result": "one order of magnitude lower"}]}, {"substance": "α-defensin: low molecular weight granulocyte protein, pdb code 1dfn", "values": [{"measurement": "anti-HIV activity", "setting": "[3]", "result": "anti-HIV activity"}]}]}
